Experimental data published in article doi:10.1101/2021.09.27.461913v1, “Interactions of cytosolic termini of the Jen1 monocarboxylate transporter are critical for trafficking, transport activity and endocytosis” (biorxiv, 2021).

Assays:
Test in all cases: radiolabelled [3H]-xanthine uptake in intact  cells
Type in all cases: cell-based, Aspergillus nidulans
Conditions in all cases: labelled compound
UapA/Jen1NT94-CT33 = system: T1, UapA/Jen1NT94-CT33
T1 construct: Jen1 1-94 / intact UapA / Jen1 584-616, GFP-tagged, GAL promoter, in S. cerevisiae; one polypeptide; with Carboxylic acid transporter protein homolog; Carboxylic acid transporter protein homolog

UapA/Jen1NT94 = system: T2, UapA/Jen1NT94
T2 construct: Jen1 residues 1-94 fused N-terminally to intact UapA, GFP-tagged, GAL promoter, in S. cerevisiae; one polypeptide; with Carboxylic acid transporter protein homolog

UapA/Jen1CT33 = system: T3, UapA/Jen1CT33
T3 construct: Jen1 residues 584-616 fused C-terminally to intact UapA, GFP-tagged, GAL promoter, in S. cerevisiae; one polypeptide; with Carboxylic acid transporter protein homolog

O=c1[nH]c(=O)c2[nH]cnc2[nH]1 [xanthine] gave a Km (UapA/Jen1NT94-CT33) of 101 ± 10 µM, a Km (UapA/Jen1NT94) of 5 ± 2 µM and a Km (UapA/Jen1CT33) of 10 ± 3 µM.
